Test results taken from ChEMBL document CHEMBL1135102, “2-Amino-7-deazaadenine forms stable base pairs with cytosine and thymine” (Bioorg Med Chem Lett, 2002).

Columns and labels:
Assay type in all cases: ADME
[1] = Kinetic parameter Km was determined
[2] = Kinetic parameter Vmax was determined
[3] = Efficiency expressed as ratio of Vmax to that of Km was determined

Km [1] [µM] | Vmax [2] [pmol/U/min] | Ratio [3] | Structure (SMILES)
25.6 | 18.7 | 0.73 | Nc1ccn([C@H]2C[C@H](O)[C@@H](COP(=O)(O)OP(=O)(O)OP(=O)(O)O)O2)c(=O)n1 [DEOXYCYTIDINE TRIPHOSPHATE]
62 | 13.1 | 0.211 | Nc1nc2c(ncn2[C@H]2C[C@H](O)[C@@H](COP(=O)(O)OP(=O)(O)OP(=O)(O)O)O2)c(=O)[nH]1 [DEOXYGUANOSINE TRIPHOSPHATE]
22 | 0.994 | 0.0452 | Nc1ncnc2c1ncn2[C@H]1C[C@H](O)[C@@H](COP(=O)(O)OP(=O)(O)OP(=O)(O)O)O1
